According to the NIST ThermoML archive (doi:10.1016/j.fluid.2010.08.026):
± gives the expanded uncertainty stated by the source.

What was measured:
[1] = Closed cell (Static) method; for Normal melting temperature: Crystal 1
[2] = Molar enthalpy of transition or fusion

| Structure (SMILES) | vapor or sublimation pressure ([1]; 356.86 K, Liquid) | Normal melting temperature [1] | Molar enthalpy of transition or fusion ([2]; Crystal, DSC) | Molar enthalpy of transition or fusion ([2]; Crystal 1, Closed cell (Static) method) |
| --- | --- | --- | --- | --- |
| CN(CCO)CCO [N-methyldiethanolamine] | 0.2 kPa | -23 °C | – | – |
| CC(C)NC(C)C [diisopropylamine] | – | – | 5.43 ± 0.172 kcal/mol | – |
| CC(O)CNCC(C)O (stereo not given) [N-(2-hydroxypropyl)-2-hydroxy-1-propanamine] | – | 42.7 °C | – | 5.43 kcal/mol |
